Among the data in ChEMBL document CHEMBL4706663, “Large-scale isolation and antitumor mechanism evaluation of compounds from the traditional Chinese medicine Cordyceps Militaris” (Eur J Med Chem, 2021) are Activity values, retold here.

Active and inactive are the calls of the source. No cut-off for these calls is given here.

Data set [1] can be described thus: Toxicity in […] lung cancer cells xenografted BALB/c mouse assessed as net weight at 80 mg/kg, ig administered every day for 10 days (reference value: 1.16 +/- 1.55 g). Format: organism-based. The note with it: in vivo, po, 240 h, time 10 day.
Data set [2] in a line: Toxicity in […] lung cancer cells xenografted BALB/c mouse assessed as net weight at 27 mg/kg, ig administered every day for 10 days (reference value: 1.16 +/- 1.55 g). Format: organism-based. The note with it: in vivo, po, 240 h, time 10 day.
The nature of data set [3]: Antitumor activity against […] cells xenografted in KM mouse assessed as liver weight at 240 mg/kg, ig administered every day for 10 days measured post last dose (reference value: 1.57 +/- 0.3 g). Format: functional. The note with it: time 10 day.
Data set [4] in a line: Antitumor activity against […] cells xenografted in KM mouse assessed as liver weight at 80 mg/kg, ig administered every day for 10 days measured post last dose (reference value: 1.57 +/- 0.3 g). It is filed as functional. The conditions noted are these: time 10 day.
Data set [5] in a line: Antitumor activity against […] cells xenografted in KM mouse assessed as liver weight at 27 mg/kg, ig administered every day for 10 days measured post last dose (reference value: 1.57 +/- 0.3 g). It is filed as functional. The conditions noted are these: time 10 day.
For data set [6], the target named is T1, Delta(3,5)-Delta(2,4)-dienoyl-CoA isomerase, mitochondrial (Homo sapiens) (UniProt Q13011).
T1 sequence (whole entry): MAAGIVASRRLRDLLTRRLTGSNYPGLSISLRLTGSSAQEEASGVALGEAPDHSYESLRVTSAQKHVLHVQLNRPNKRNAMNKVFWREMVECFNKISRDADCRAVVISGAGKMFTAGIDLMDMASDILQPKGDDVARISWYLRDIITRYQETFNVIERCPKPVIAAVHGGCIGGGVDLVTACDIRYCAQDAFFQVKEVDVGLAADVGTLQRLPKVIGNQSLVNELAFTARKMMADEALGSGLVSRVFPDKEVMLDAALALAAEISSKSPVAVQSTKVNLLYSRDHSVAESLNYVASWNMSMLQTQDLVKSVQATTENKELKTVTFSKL
Put plainly: Binding affinity to delta(3,5)-delta(2,4)-dienoyl-CoA isomerase, mitochondrial in human A549 cells by LC-MS/MS analysis. It is filed as cell-based.

On to `CC(C)[C@@H](C)/C=C/[C@@H](C)[C@H]1CC[C@H]2C3=CC=C4C[C@@H](O)CC[C@]4(C)[C@H]3CC[C@]12C` [ERGOSTEROL], for which the Activity was -0.95 g in data set [1]; -0.36 g in data set [2]; 1.57 g in data set [3]; 1.87 g in data set [4]; 1.67 g in data set [5]. The result in data set [6] was Active.
